Measured values published in ChEMBL document CHEMBL5518181, “Studies of antibacterial activity (in vitro and in vivo) and mode of action for des-acyl tridecaptins (DATs)” (Eur J Med Chem, 2024).
Values after ≈ are worked out from the molar mass of the structure shown.

Legend:
[1] = test system: Escherichia coli; test: Antibacterial activity against wild-type Escherichia coli ATCC 25922 assessed as inhibition of bacterial growth incubated for 18 hrs; type: functional; conditions: read-out: MIC100
[2] = test system: Klebsiella pneumoniae; test: Antibacterial activity against wild-type Klebsiella pneumoniae ATCC 13883 assessed as inhibition of bacterial growth incubated for 18 hrs; type: functional; conditions: read-out: MIC100
[3] = Hemolytic activity in human red blood cells at 400 ug/ml incubated for 45 mins by spectrophotometric analysis relative to control; type: toxicity, cell-based, Erythrocyte; conditions: red blood cells (erythrocytes), at 400 µg/mL, read-out: Activity
[4] = Cytotoxicity against human HepG2 cells incubated for 40 hrs by celltiter-glo luminescent cell viability assay; type: toxicity, cell-based

SMILES: CC[C@H](C)[C@@H](NC(=O)[C@@H](NC(=O)[C@H](CCC(=O)O)NC(=O)[C@H](Cc1ccccc1)NC(=O)[C@@H](CCN)NC(=O)[C@H](CCN)NC(=O)[C@H](CO)NC(=O)[C@@H](Cc1c[nH]c2ccccc12)NC(=O)[C@@H](CO)NC(=O)CNC(=O)[C@@H](C)NC(=O)[C@H](N)C(C)C)C(C)C)C(=O)N[C@@H](C)C(=O)O
- MIC [1]: > 64 µg/mL
- MIC [2]: > 64 µg/mL
- hemolysis at 0.75 h, 400 ug/ml [3]: 0.1%
- IC50 at 40 h [4]: > 170 µg/mL

SMILES: CC[C@H](C)[C@@H](NC(=O)[C@@H](NC(=O)[C@H](CCC(=O)O)NC(=O)[C@H](Cc1ccccc1)NC(=O)[C@@H](CCN)NC(=O)[C@H](CCN)NC(=O)[C@H](CO)NC(=O)[C@@H](Cc1c[nH]c2ccccc12)NC(=O)[C@@H](CO)NC(=O)CNC(=O)[C@@H](CCN)NC(=O)[C@H](N)C(C)(C)C)C(C)C)C(=O)N[C@@H](C)C(=O)O
- MIC [1]: 32 µg/mL (≈ 22.7 µM)
- MIC [2]: 16 µg/mL (≈ 11.4 µM)
- hemolysis at 0.75 h, 400 ug/ml [3]: 13%
- IC50 at 40 h [4]: 33 µg/mL (≈ 23.4 µM)

SMILES: CC[C@H](C)[C@@H](NC(=O)[C@@H](NC(=O)[C@H](CCC(=O)O)NC(=O)[C@H](Cc1ccccc1)NC(=O)[C@@H](CCN)NC(=O)[C@H](CCN)NC(=O)[C@H](C)NC(=O)[C@@H](Cc1c[nH]c2ccccc12)NC(=O)[C@@H](CO)NC(=O)CNC(=O)[C@@H](CCN)NC(=O)[C@H](NC(=O)[C@H](C)N)C(C)C)C(C)C)C(=O)N[C@@H](C)C(=O)O
- MIC [1]: 4 µg/mL (≈ 2.76 µM)
- MIC [2]: 8 µg/mL (≈ 5.52 µM)
- hemolysis at 0.75 h, 400 ug/ml [3]: 0%
- IC50 at 40 h [4]: > 170 µg/mL

SMILES: CC[C@H](C)[C@H](NC(=O)[C@H](CCC(=O)O)NC(=O)[C@H](Cc1ccccc1)NC(=O)[C@@H](CCN)NC(=O)[C@H](CCN)NC(=O)[C@H](CO)NC(=O)[C@@H](Cc1c[nH]c2ccccc12)NC(=O)[C@@H](CO)NC(=O)CNC(=O)[C@@H](CCN)NC(=O)[C@H](N)C(C)C)C(=O)N[C@@H](C(=O)N[C@@H](C)C(=O)O)[C@@H](C)CC
- MIC [1]: 32 µg/mL (≈ 22.7 µM)
- MIC [2]: 16 µg/mL (≈ 11.4 µM)
- hemolysis at 0.75 h, 400 ug/ml [3]: 70.6%
- IC50 at 40 h [4]: > 60 µg/mL

SMILES: CC[C@H](C)[C@@H](NC(=O)[C@H](C)NC(=O)[C@H](CCC(=O)O)NC(=O)[C@H](Cc1ccccc1)NC(=O)[C@@H](CCN)NC(=O)[C@H](CCN)NC(=O)[C@H](CO)NC(=O)[C@@H](Cc1c[nH]c2ccccc12)NC(=O)[C@@H](CO)NC(=O)CNC(=O)[C@@H](CCN)NC(=O)[C@H](NC(=O)[C@H](C)N)C(C)C)C(=O)N[C@@H](C)C(=O)O
- MIC [1]: 32 µg/mL (≈ 22.3 µM)
- MIC [2]: 32 µg/mL (≈ 22.3 µM)
- hemolysis at 0.75 h, 400 ug/ml [3]: 5.5%
- IC50 at 40 h [4]: 51 µg/mL (≈ 35.5 µM)

SMILES: CC[C@H](C)[C@@H](NC(=O)[C@@H](NC(=O)[C@H](CCC(=O)O)NC(=O)[C@H](Cc1ccccc1)NC(=O)[C@@H](CN)NC(=O)[C@H](CCN)NC(=O)[C@H](CO)NC(=O)[C@@H](Cc1c[nH]c2ccccc12)NC(=O)[C@@H](CO)NC(=O)CNC(=O)[C@@H](CCN)NC(=O)[C@H](NC(=O)[C@H](C)N)C(C)C)C(C)C)C(=O)N[C@@H](C)C(=O)O
- MIC [1]: > 64 µg/mL
- MIC [2]: > 64 µg/mL
- hemolysis at 0.75 h, 400 ug/ml [3]: 0%
- IC50 at 40 h [4]: > 170 µg/mL

SMILES: CC[C@H](C)[C@@H](NC(=O)[C@@H](NC(=O)[C@H](CCC(=O)O)NC(=O)[C@H](Cc1cccc2ccccc12)NC(=O)[C@@H](CCN)NC(=O)[C@H](CCN)NC(=O)[C@H](CO)NC(=O)[C@@H](Cc1c[nH]c2ccccc12)NC(=O)[C@@H](CO)NC(=O)CNC(=O)[C@@H](CCN)NC(=O)[C@H](NC(=O)[C@H](C)N)C(C)C)C(C)C)C(=O)N[C@@H](C)C(=O)O
- MIC [1]: 2 µg/mL (≈ 1.32 µM)
- MIC [2]: 1 µg/mL (≈ 0.66 µM)
- hemolysis at 0.75 h, 400 ug/ml [3]: 52.9%
- IC50 at 40 h [4]: 83 µg/mL (≈ 54.8 µM)

SMILES: CC[C@H](C)[C@@H](NC(=O)[C@@H](NC(=O)[C@H](CCC(=O)O)NC(=O)[C@H](Cc1ccccc1)NC(=O)[C@@H](CCN)NC(=O)[C@H](CCN)NC(=O)[C@H](CO)NC(=O)[C@@H](Cc1c[nH]c2ccccc12)NC(=O)[C@@H](CO)NC(=O)CNC(=O)[C@@H](CCN)NC(=O)[C@H](NC(=O)CN)C(C)C)C(C)C)C(=O)N[C@@H](C)C(=O)O
- MIC [1]: 32 µg/mL (≈ 22 µM)
- MIC [2]: 32 µg/mL (≈ 22 µM)
- hemolysis at 0.75 h, 400 ug/ml [3]: 0%
- IC50 at 40 h [4]: > 70 µg/mL

SMILES: CC(C)C[C@@H](NC(=O)[C@@H](NC(=O)[C@H](CCC(=O)O)NC(=O)[C@H](Cc1ccccc1)NC(=O)[C@@H](CCN)NC(=O)[C@H](CCN)NC(=O)[C@H](CO)NC(=O)[C@@H](Cc1c[nH]c2ccccc12)NC(=O)[C@@H](CO)NC(=O)CNC(=O)[C@@H](CCN)NC(=O)[C@H](N)C(C)C)C(C)C)C(=O)N[C@@H](C)C(=O)O
- MIC [1]: 64 µg/mL (≈ 45.9 µM)
- MIC [2]: 64 µg/mL (≈ 45.9 µM)
- hemolysis at 0.75 h, 400 ug/ml [3]: 45.9%
- IC50 at 40 h [4]: 161 µg/mL (≈ 115 µM)

SMILES: CC[C@H](C)[C@@H](NC(=O)[C@@H](NC(=O)[C@H](CCC(=O)O)NC(=O)[C@H](Cc1ccccc1)NC(=O)[C@@H](CCN)NC(=O)[C@H](CCN)NC(=O)[C@H](CC(=O)O)NC(=O)[C@@H](Cc1c[nH]c2ccccc12)NC(=O)[C@@H](CO)NC(=O)CNC(=O)[C@@H](CCN)NC(=O)[C@H](N)C(C)C)C(C)C)C(=O)N[C@@H](C)C(=O)O
- MIC [1]: > 64 µg/mL
- MIC [2]: > 64 µg/mL
- hemolysis at 0.75 h, 400 ug/ml [3]: 0%
- IC50 at 40 h [4]: > 170 µg/mL

SMILES: CC[C@H](C)[C@@H](NC(=O)[C@@H](NC(=O)[C@H](CCC(=O)O)NC(=O)[C@H](Cc1ccccc1)NC(=O)[C@@H](CCN)NC(=O)[C@H](CCN)NC(=O)[C@H](CO)NC(=O)[C@@H](Cc1c[nH]c2ccccc12)NC(=O)[C@@H](CO)NC(=O)CNC(=O)[C@@H](C)NC(=O)[C@H](NC(=O)[C@H](C)N)C(C)C)C(C)C)C(=O)N[C@@H](C)C(=O)O
- MIC [1]: > 64 µg/mL
- MIC [2]: 64 µg/mL (≈ 44.5 µM)
- hemolysis at 0.75 h, 400 ug/ml [3]: 0.6%
- IC50 at 40 h [4]: > 170 µg/mL

SMILES: CC[C@H](C)[C@@H](NC(=O)[C@@H](NC(=O)[C@H](CCC(=O)O)NC(=O)[C@H](C)NC(=O)[C@@H](CCN)NC(=O)[C@H](CCN)NC(=O)[C@H](CO)NC(=O)[C@@H](Cc1c[nH]c2ccccc12)NC(=O)[C@@H](CO)NC(=O)CNC(=O)[C@@H](CCN)NC(=O)[C@H](NC(=O)[C@H](C)N)C(C)C)C(C)C)C(=O)N[C@@H](C)C(=O)O
- MIC [1]: > 64 µg/mL
- MIC [2]: > 64 µg/mL
- hemolysis at 0.75 h, 400 ug/ml [3]: 0%
- IC50 at 40 h [4]: > 170 µg/mL

SMILES: CC[C@H](C)[C@@H](NC(=O)[C@@H](NC(=O)[C@H](CCC(=O)O)NC(=O)[C@H](Cc1ccccc1)NC(=O)[C@@H](CCN)NC(=O)[C@H](CN)NC(=O)[C@H](CO)NC(=O)[C@@H](Cc1c[nH]c2ccccc12)NC(=O)[C@@H](CO)NC(=O)CNC(=O)[C@@H](CCN)NC(=O)[C@H](N)C(C)C)C(C)C)C(=O)N[C@@H](C)C(=O)O
- MIC [1]: 64 µg/mL (≈ 46.4 µM)
- MIC [2]: 32 µg/mL (≈ 23.2 µM)
- hemolysis at 0.75 h, 400 ug/ml [3]: 1.5%
- IC50 at 40 h [4]: > 170 µg/mL

SMILES: CC(C)[C@H](NC(=O)[C@H](CCC(=O)O)NC(=O)[C@H](Cc1ccccc1)NC(=O)[C@@H](CCN)NC(=O)[C@H](CCN)NC(=O)[C@H](CO)NC(=O)[C@@H](Cc1c[nH]c2ccccc12)NC(=O)[C@@H](CO)NC(=O)CNC(=O)[C@@H](CCN)NC(=O)[C@H](NC(=O)[C@H](C)N)C(C)C)C(=O)N[C@@H](C(=O)N[C@@H](C)C(=O)O)C(C)(C)C
- MIC [1]: 2 µg/mL (≈ 1.36 µM)
- MIC [2]: 1 µg/mL (≈ 0.682 µM)
- hemolysis at 0.75 h, 400 ug/ml [3]: 71.2%
- IC50 at 40 h [4]: 23 µg/mL (≈ 15.7 µM)

SMILES: CC[C@H](C)[C@@H](NC(=O)[C@@H](NC(=O)[C@H](CCC(=O)O)NC(=O)[C@H](Cc1ccccc1)NC(=O)[C@@H](CCN)NC(=O)[C@H](CCN)NC(=O)[C@H](CO)NC(=O)[C@@H](Cc1c[nH]c2ccccc12)NC(=O)[C@@H](CO)NC(=O)CNC(=O)[C@@H](CCN)NC(=O)[C@H](N)CCN)C(C)C)C(=O)N[C@@H](C)C(=O)O
- MIC [1]: > 64 µg/mL
- MIC [2]: > 64 µg/mL
- hemolysis at 0.75 h, 400 ug/ml [3]: 0%
- IC50 at 40 h [4]: > 170 µg/mL
